In ChEMBL document CHEMBL3352288, “Synthesis and biological evaluation of 9α- and 9β-hydroxyamino-parthenolides as novel anticancer agents” (Bioorg Med Chem Lett, 2014):

What was measured:
Format in all cases: functional, cell-based
[1] = Anticancer activity against mouse B16F10 cells assessed as growth inhibition after 72 hrs by MTT colorimetric assay; settings: B16-F10, 72 h
[2] = tested on: SK-MEL-28; experiment: Anticancer activity against human SK-MEL-28 cells assessed as growth inhibition after 72 hrs by MTT assay; settings: SK-MEL-28, 72 h
[3] = tested on: Hs 683; experiment: Anticancer activity against human Hs 683 cells assessed as growth inhibition after 72 hrs by MTT colorimetric assay; settings: Hs 683, 72 h
[4] = Anticancer activity against human Glioma cells assessed as growth inhibition after 72 hrs by MTT assay
[5] = tested on: MCF7; experiment: Anticancer activity against human MCF7 cells assessed as growth inhibition after 72 hrs by MTT assay; settings: MCF7, 72 h
[6] = tested on: A549; experiment: Anticancer activity against human A549 cells assessed as growth inhibition after 72 hrs by MTT colorimetric assay; settings: A549, 72 h
[7] = tested on: T98G; experiment: Anticancer activity against human T98G cells assessed as growth inhibition after 72 hrs by MTT assay

| Structure (SMILES) | IC50 [1] [µM] | IC50 [2] [µM] | IC50 [3] [µM] | IC50 [4] [µM] | IC50 [5] [µM] | IC50 [6] [µM] | IC50 [7] [µM] |
| --- | --- | --- | --- | --- | --- | --- | --- |
| C/C1=C\CC[C@@]2(C)O[C@@H]2[C@H]2OC(=O)[C@@H](CN3CCCC3)[C@@H]2C[C@H]1O | 4 | 19 | 15 | 5 | 21 | 10 |  |
| C/C1=C\CC[C@@]2(C)O[C@@H]2[C@H]2OC(=O)[C@@H](CN3CCCCC3)[C@@H]2C[C@H]1O | 4 | 16 | 7 | 4 | 16 | 18 |  |
| C/C1=C\CC[C@@]2(C)O[C@@H]2[C@H]2OC(=O)[C@@H](CN3CCN(C)CC3)[C@@H]2C[C@H]1O | 25 | 57 | 33 | 36 | 33 | 30 |  |
| C/C1=C\CC[C@@]2(C)O[C@@H]2[C@H]2OC(=O)[C@@H](CN(C)CCN(C)C)[C@@H]2C[C@H]1O | 4 | 19 | 9 | 16 | 14 | 8 |  |
| C/C1=C\CC[C@@]2(C)O[C@@H]2[C@H]2OC(=O)[C@@H](CN3CCOCC3)[C@@H]2C[C@H]1O | 5 | 22 | 22 | 5 | 24 | 25 |  |
| C/C1=C\CC[C@@]2(C)O[C@@H]2[C@H]2OC(=O)[C@@H](CN3CCN(c4ccccc4)CC3)[C@@H]2C[C@H]1O | 6 | 19 | 22 | 5 | 19 | 17 |  |
| C/C1=C\CC[C@@]2(C)O[C@@H]2[C@H]2OC(=O)[C@@H](CN3CCN(c4ccccc4F)CC3)[C@@H]2C[C@H]1O | 6 | 25 | 25 | 6 | 24 | 22 |  |
| COc1ccc(N2CCN(C[C@@H]3C(=O)O[C@H]4[C@H]3C[C@@H](O)/C(C)=C/CC[C@@]3(C)O[C@H]43)CC2)cc1 | 14 | 25 | 22 | 18 | 24 | 26 |  |
| C/C1=C\CC[C@@]2(C)O[C@@H]2[C@H]2OC(=O)[C@@H](CN3CCCC3)[C@@H]2C[C@@H]1O | 7 | 23 | 10 |  | 18 | 9 | 15 |
| C/C1=C\CC[C@@]2(C)O[C@@H]2[C@H]2OC(=O)[C@@H](CN3CCCCC3)[C@@H]2C[C@@H]1O | 6 | 10 | 7 |  | 8 | 6 | 17 |
| C/C1=C\CC[C@@]2(C)O[C@@H]2[C@H]2OC(=O)[C@@H](CN3CCN(C)CC3)[C@@H]2C[C@@H]1O | 9 | 23 | 22 |  | 22 | 25 | 23 |
| C[C@]12O[C@@H]1CC[C@@]1(C)O[C@@H]1[C@H]1OC(=O)[C@@H](CN3CCCCC3)[C@@H]1C[C@H]2O | 46 | 84 | 67 | 59 | 74 | 90 |  |
| C[C@]12O[C@@H]1CC[C@@]1(C)O[C@@H]1[C@H]1OC(=O)[C@@H](CN3CCOCC3)[C@@H]1C[C@H]2O | 9 | 22 | 24 | 12 | 24 | 23 |  |
| C[C@]12O[C@@H]1CC[C@@]1(C)O[C@@H]1[C@H]1OC(=O)[C@@H](CN3CCN(c4ccccc4)CC3)[C@@H]1C[C@H]2O | 22 | 51 | 31 | 35 | 59 | 48 |  |
| C[C@]12O[C@@H]1CC[C@@]1(C)O[C@@H]1[C@H]1OC(=O)[C@@H](CN3CCN(c4ccccc4F)CC3)[C@@H]1C[C@H]2O | 5 | 17 | 18 | 8 | 20 | 22 |  |
| C[C@]12O[C@@H]1CC[C@@]1(C)O[C@@H]1[C@H]1OC(=O)[C@@H](CN3CCN(c4ccc(Cl)cc4)CC3)[C@@H]1C[C@H]2O | 19 | 31 |  |  | 29 | 28 | 16 |
| C=C1C(=O)O[C@H]2[C@H]1C[C@H](O)/C(C)=C/CC[C@@]1(C)O[C@@H]21 | 15 | 25 | 25 |  | 23 | 24 | 25 |
| C=C1C(=O)O[C@H]2[C@H]1C[C@@H](O)/C(C)=C/CC[C@@]1(C)O[C@@H]21 | 4 | 9 | 7 |  | 6 | 7 | 11 |
